According to PMC6251817 (Acta Pharmaceutica Sinica. B, 2018):

target: T1, PTP1B (recombinant human GST-PTP1B) (Homo sapiens, UniProt P18031); test: pNPP hydrolysis, absorbance […] nm; type: biochemical
T1 sequence (P18031 1-435): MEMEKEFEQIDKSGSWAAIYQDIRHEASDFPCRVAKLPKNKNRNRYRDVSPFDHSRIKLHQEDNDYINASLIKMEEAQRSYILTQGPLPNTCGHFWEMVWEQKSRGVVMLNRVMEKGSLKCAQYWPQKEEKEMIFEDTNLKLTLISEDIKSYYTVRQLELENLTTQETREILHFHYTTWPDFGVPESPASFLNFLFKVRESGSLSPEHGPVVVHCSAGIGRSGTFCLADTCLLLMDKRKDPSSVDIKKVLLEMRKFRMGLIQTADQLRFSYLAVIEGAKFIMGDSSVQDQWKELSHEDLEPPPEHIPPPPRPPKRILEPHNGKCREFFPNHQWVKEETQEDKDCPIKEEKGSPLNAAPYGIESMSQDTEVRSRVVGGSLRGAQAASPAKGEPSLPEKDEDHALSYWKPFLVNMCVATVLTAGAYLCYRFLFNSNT

| IC50 | Structure (SMILES) |
| --- | --- |
| 4.19 µM | COc1ccc(CC(=O)Nc2ccc(NC(=O)c3ccc(CCC(=O)c4ccc(OC)cc4)cc3)cc2)cc1 [compound 27, 4-(3-(4-Methoxyphenyl)-3-oxopropyl)-N-(4-(2-(4-methoxyphenyl)acetamido)phenyl)benzamide] |
| 6.22 µM | COc1ccc(C(=O)NCc2ccc(C(=O)Nc3ccc(NC(=O)c4ccccc4)cc3)cc2)cc1 [compound 31, N-(4-Benzamidophenyl)-4-((4-methoxybenzamido)methyl)benzamide] |
| 5.23 µM | Cc1ccc(C(=O)/C=C/c2ccc(C(=O)Nc3ccc(C(=O)Nc4ccccc4)cc3)cc2)cc1 [compound 10, (E)-4-(3-Oxo-3-(p-tolyl)prop-1-en-1-yl)-N-(4-(phenylcarbamoyl)phenyl)benzamide] |
| 7.26 µM | COc1ccc(C(=O)CCc2ccc(C(=O)Nc3ccc(C(=O)Nc4ccc(N5CCOCC5)cc4)cc3)cc2)cc1 [compound 8, 4-(3-(4-Methoxyphenyl)-3-oxopropyl)-N-(4-((4-morpholinophenyl)carbamoyl)phenyl)benzamide] |
| 6.85 µM | COc1ccc(C(=O)NCc2ccc(C(=O)Nc3ccc(C(=O)Nc4ccc(N5CCOCC5)cc4)cc3)cc2)cc1 [compound 20, 4-Methoxy-N-(4-((4-((4-morpholinophenyl)carbamoyl)phenyl)carbamoyl)benzyl)benzamide] |
| 7.74 µM | COc1ccc(/C=C/C(=O)c2ccc(C(=O)Nc3ccc(C(=O)Nc4ccccc4)cc3)cc2)cc1 [compound 15, (E)-4-(3-(4-Methoxyphenyl)acryloyl)-N-(4-(phenylcarbamoyl)phenyl)benzamide] |
| 4.7 µM | COc1ccc(/C=C/C(=O)c2ccc(C(=O)Nc3ccc(NC(=O)Cc4ccc(OC)cc4)cc3)cc2)cc1 [compound 29, (E)-N-(4-(2-(4-Methoxyphenyl)acetamido)phenyl)-4-(3-(4-methoxyphenyl)acryloyl)benzamide] |
| 4.9 µM | CN(C)c1ccc(C(=O)CCc2ccc(C(=O)Nc3ccc(C(=O)Nc4ccccc4)cc3)cc2)cc1 [compound 4, 4-(3-(4-(Dimethylamino)phenyl)-3-oxopropyl)-N-(4-(phenylcarbamoyl)phenyl)benzamide] |
| 4.76 µM | COc1ccc(C(=O)NCc2ccc(C(=O)Nc3ccc(C(=O)Nc4ccccc4OC)cc3)cc2)cc1 [compound 23, 4-Methoxy-N-(4-((4-((2-methoxyphenyl)carbamoyl)phenyl)carbamoyl)benzyl)benzamide] |
| 5.91 µM | COc1ccc(CC(=O)Nc2ccc(NC(=O)c3ccc(/C=C/C(=O)c4ccc(OC)cc4)cc3)cc2)cc1 [compound 28, (E)-4-(3-(4-Methoxyphenyl)-3-oxoprop-1-en-1-yl)-N-(4-(2-(4-methoxyphenyl)acetamido)phenyl)benzamide] |
| 24.3 µM | COc1ccc(C(=O)CCc2ccc(C(=O)Nc3cccc(C(=O)Nc4cc(OC)cc(OC)c4)c3)cc2)cc1 [compound 33, N-(3,5-Dimethoxyphenyl)-3-(4-(3-(4-methoxyphenyl)-3-oxopropyl)benzamido)benzamide] |
| 8.16 µM | COc1ccc(C(=O)NCc2ccc(C(=O)Nc3ccc(C(=O)Nc4ccccc4)cc3)cc2)cc1 [compound 18, 4-Methoxy-N-(4-((4-(phenylcarbamoyl)phenyl)carbamoyl)benzyl)benzamide] |
| 8.81 µM | O=C(/C=C/c1ccc(C(=O)Nc2ccc(C(=O)Nc3ccccc3)cc2)cc1)c1ccc(F)cc1 [compound 9, (E)-4-(3-(4-Fluorophenyl)-3-oxoprop-1-en-1-yl)-N-(4-(phenylcarbamoyl)phenyl)benzamide] |
